Laboratory results published in article PMC10259452 (Journal of Medicinal Chemistry, 2023).
Read-outs that look alike come from different tables or passages of the source.

Experiments:
[1] = mouse, microsomes, pH 7.4
[2] = pH 7.4
[3] = dog, microsomes, pH 7.4
[4] = human, microsomes, pH 7.4
[5] = rat, microsomes, pH 7.4
human GAL4-RORγ = target: T1, human GAL4-RORγ (Homo sapiens, UniProt P51449); test: human GAL4-RORγ reporter assay; type: cell-based
T1 sequence (P51449 269-508 limits assumed): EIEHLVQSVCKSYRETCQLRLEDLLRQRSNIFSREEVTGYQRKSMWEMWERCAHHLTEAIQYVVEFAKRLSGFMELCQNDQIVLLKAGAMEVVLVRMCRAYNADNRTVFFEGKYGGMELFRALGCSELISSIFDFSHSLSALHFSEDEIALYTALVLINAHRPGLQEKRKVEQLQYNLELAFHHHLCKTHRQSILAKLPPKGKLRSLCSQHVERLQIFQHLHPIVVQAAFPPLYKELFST

[6] = microsomes
[7] = tested on: human peripheral blood mononuclear cells (PBMCs)

| Structure (SMILES) | microsomal stability Clin [1] | recovery in Caco-2 permeability assay (Caco-2 cells; human, Caco-2, pH 7.4) [%] | dependence of solubility on pH (in words) [2] | microsomal stability Clin [3] | microsomal stability Clin [4] | microsomal stability Clin [5] | Caco-2 permeability in the A–B direction, grade in words (Caco-2 cells; Caco-2) | intrinsic clearance (Clin) grade in words [6] | reduction in IL17A+ cells compared to control (in words) [7] | MDR1-MDCKII permeability in the A–B direction, grade in words (MDR1-MDCKII cells; MDCK-MDR1) | other results |
| --- | --- | --- | --- | --- | --- | --- | --- | --- | --- | --- | --- |
| CCC1CCc2c(sc(NC(=O)c3ccnn3C)c2C(=O)Nc2ccccc2C)C1 (centres unmarked) [Compound 4, N-(6-Ethyl-3-{[(2-methylphenyl)amino]carbonyl}-4,5,6,7-tetrahydro-1-benzothien-2-yl)-1-methyl-1H-pyrazole-5-carboxamide] | 11/22/29/24 μL/min/mg | < 80 | not affected | 11/22/29/24 μL/min/mg | 11/22/29/24 μL/min/mg | 11/22/29/24 μL/min/mg | – | – | – | – | – |
| CN1CCN(CC(=O)Nc2sc3c(c2C(=O)NCc2ccccc2)CCCC3)CC1 [Compound 10, N-Benzyl-2-{[(4-methyl-1-piperazinyl) Acetyl]amino}-4,5,6,7-tetrahydro-1-benzothiophene-3-carboxamide] | 319/214/115/132 μL/min/mg | < 80 | – | 319/214/115/132 μL/min/mg | 319/214/115/132 μL/min/mg | 319/214/115/132 μL/min/mg | moderate | moderate | greatest reduction | moderate | IC50 (human GAL4-RORγ): 0.82 nM; IL17A secretion from polarized PBMCs compared to the vehicle [7]: decreased; IL21 secretion from polarized PBMCs compared to the vehicle [7]: decreased; reduction in percentage of IL17A+ cells [7]: 40–60% |
| CC1CCCN1C(=O)c1c(NC(=O)c2cccnc2)sc2c1CCCC2 (centres unmarked) [Compound 12, N-(3-(2-Methylpyrrolidine-1-carbonyl)-4,5,6,7-tetrahydro-benzo[b]thiophen-2-yl) Nicotinamide] | 71/67/97/53 μL/min/mg | – | – | 71/67/97/53 μL/min/mg | 71/67/97/53 μL/min/mg | 71/67/97/53 μL/min/mg | high permeability | – | – | high | – |
| CC1CCc2c(sc(NC(=O)c3ccccc3F)c2C(=O)N2CCN(C)CC2)C1 (centres unmarked) [Compound 6, 2-Fluoro-N-{6-methyl-3-[(4-methyl-1-piperazinyl)carbonyl]-4,5,6,7-tetrahydro-1-benzothien-2-yl} Benzamide] | 546/91/116/60 μL/min/mg | – | inversely proportional | 546/91/116/60 μL/min/mg | 546/91/116/60 μL/min/mg | 546/91/116/60 μL/min/mg | – | moderate | – | – | – |
| Cn1ccnc1SCC(=O)Nc1sc2c(c1C(=O)NCc1ccccc1)CCCC2 [Compound 16, N-Benzyl-2-(2-((1-methyl-1H-imidazole-2-yl)thio)acetamido)-4,5,6,7-tetrahydrobenzo[b]thiophene-3-carboxamide] | 2142/954/887/332 μL/min/mg | – | inversely proportional | 2142/954/887/332 μL/min/mg | 2142/954/887/332 μL/min/mg | 2142/954/887/332 μL/min/mg | – | high | – | – | – |
| CC1CCN(CC(=O)Nc2sc3c(c2C(=O)NCc2ccccc2)CCCC3)CC1 [Compound 11, N-Benzyl-2-{[(4-methyl-1-piperidinyl) Acetyl]amino}-4,5,6,7-tetrahydro-1-benzothiophene-3-carboxamide] | 2345/510/942/260 μL/min/mg | < 80 | – | 2345/510/942/260 μL/min/mg | 2345/510/942/260 μL/min/mg | 2345/510/942/260 μL/min/mg | low permeability | high | – | low permeability | Caco-2 permeability efflux verapamil (Caco-2 cells; human, Caco-2, pH 7.4): 1.2; MDR1-MDCKII permeability efflux cyclosporine A (MDR1-MDCKII cells; dog, MDCK-MDR1, pH 7.4): 0.7 |
| O=C(CN1CCCCC1)Nc1sc2c(c1C(=O)NCc1ccccc1)CCCC2 [Compound 9, N-Benzyl-2-[(1-piperidinylacetyl)amino]-4,5,6,7-tetrahydro-1-benzothiophene-3-carboxamide] | – | – | – | – | – | – | – | – | greatest reduction | – | – |
| O=C(Nc1sc2c(c1C(=O)N1CCC(CO)C1)CCCC2)c1cccnc1 (centres unmarked) [Compound 17, N-(3-(3-(Hydroxymethyl)pyrrolidine-1-carbonyl)-4,5,6,7-tetrahydrobenzo[b]thiophen-2-yl) Nicotinamide] | 46/23/7/11 μL/min/mg | – | inversely proportional | 46/23/7/11 μL/min/mg | 46/23/7/11 μL/min/mg | 46/23/7/11 μL/min/mg | moderate | – | – | moderate | active efflux in Caco-2 (Caco-2 cells; Caco-2): active efflux; active efflux / P-gp substrate in MDR1-MDCKII (MDR1-MDCKII cells; MDCK-MDR1): active efflux and are P-gp substrates |
| CSc1ncc(Cl)c(C(=O)Nc2sc3c(c2C(=O)NC2CCS(=O)(=O)C2)CCC(C)C3)n1 (centres unmarked) [Compound 3, 5-Chloro-N-(3-{[(1,1-dioxidotetrahydro-3-thienyl)amino]-carbonyl}-6-methyl-4,5,6,7-tetrahydro-1-benzothien-2-yl)-2-(methylthio)-4-pyrimidine-carboxamide] | 322/36/118/41 μL/min/mg | – | – | 322/36/118/41 μL/min/mg | 322/36/118/41 μL/min/mg | 322/36/118/41 μL/min/mg | low permeability | moderate | – | moderate | IC50 (human GAL4-RORγ): 2.19 nM; active efflux in Caco-2 (Caco-2 cells; Caco-2): active efflux; effect of verapamil on efflux ratio in Caco-2 (Caco-2 cells; Caco-2): decreased partially; stability in acidic pH (in words) [2]: unstable; active efflux / P-gp substrate in MDR1-MDCKII (MDR1-MDCKII cells; MDCK-MDR1): active efflux and are P-gp substrates; effect of cyclosporine A on efflux ratio in MDR1-MDCKII cells (MDR1-MDCKII cells; MDCK-MDR1): completely blocked |
| C[C@@H]1CCN(C(=O)c2c(NC(=O)c3cccnc3)sc3c2CCCC3)[C@H](C)C1 [Compound 13, N-(3-((2R,4R)-2,4-Dimethylpiperidine-1-carbonyl)-4,5,6,7-tetrahydrobenzo[b]thiophen-2-yl) Nicotinamide] | 414/404/507/369 μL/min/mg | – | – | 414/404/507/369 μL/min/mg | 414/404/507/369 μL/min/mg | 414/404/507/369 μL/min/mg | – | moderate | greatest reduction | – | IL17A secretion from polarized PBMCs compared to the vehicle [7]: decreased; IL21 secretion from polarized PBMCs compared to the vehicle [7]: decreased; reduction in percentage of IL17A+ cells [7]: 40–60% |
| CSc1ncc(Cl)c(C(=O)Nc2sc3c(c2C(=O)NCc2ccccc2)CCCC3)n1 [Compound 2, N-(3-(Benzylcarbamoyl)-4,5,6,7-tetrahydrobenzo[b]thiophen-2-yl)-5-chloro-2-(methylthio) Pyrimidine-4-carboxamide] | 127/126/267/115 μL/min/mg | < 80 | – | 127/126/267/115 μL/min/mg | 127/126/267/115 μL/min/mg | 127/126/267/115 μL/min/mg | moderate | moderate | greatest reduction | moderate | IC50 (human GAL4-RORγ): 0.75 nM; IL17A secretion from polarized PBMCs compared to the vehicle [7]: decreased; IL21 secretion from polarized PBMCs compared to the vehicle [7]: decreased; cell death / cell viability by flow cytometry [7]: no sign of cell death or decrease in cell viability; reduction in percentage of IL17A+ cells [7]: 40–60%; reduction of percentage of IL17A+ cells, multiple donors [7]: 20–40%; reduction of percentage of IL21+ cells, multiple donors [7]: 20–40% |
